# In patent US20230150951A1, “2,5- OR 2,6-DISUBSTITUTED HYDROQUINONE DERIVATIVES WITH AT LEAST ONE CARBOXY, SULFO OR AMIDO GROUP USEFUL AS MEDICAMENTS” (OM PHARMA SA, priority 2020, published 2023):
# Where two headings read alike, the source gives them in different places.
# What was measured:
# Assay type in all cases: cell-based
# TNF-beta = assay: Cytokine release after LPS induction on human whole blood: TNFβ
# Description: (§1) Aim of this in vitro method is to assess compounds effects on release of a panel of cytokines from whole blood following lipopolysaccharide (LPS) induced inflammatory reaction. Whole blood was incubated with compounds for 1 h prior to LPS induction. Cytokine levels in blood were measured using a multiplex FACS-based panel.
# (§2) IC50 values determined for the tested compounds expressed in microM [μM] and the values for the inhibition of cytokines were listed for each compound.
# (§3) Effect on cytokines release after LPS induction was performed on the compounds dissolved in DMSO or H2O to reach 10-fold concentrated stock solutions and dissolved in culture media.
# (§4) Test system: Whole blood was removed from a single donor (into lithium heparin coated tubes; BD Vacutainer; 367886) and diluted 1:5 with RPMI 1640 (Thermo Fisher, 61870036). Within 30 minutes of sampling, blood was incubated with compounds for 1 h prior to LPS stimulation (O111:B4—Sigma L4391; 10 ng/ml final concentration). Stimulation continued under standard cell culture conditions (37° C. with 5% CO2) overnight (18 h), after which plates were centrifuged and supernatant removed and frozen at −80° C. until used for analyses.
# (§5) Dilution of test compounds: 10×concentrated solutions (concerning to the final assay concentrations) of each test compound were prepared with the appropriate solvent (in DMSO or in water). These 10× compound solutions (10 μl) were then added to 90 μl pre-diluted whole blood (whole blood: RPMI1640, 1:5) resulting in the final assay concentration.
# (§6) Test method: Diluted whole blood (80 μl) was pre-incubated with compounds (10 μl) to give final assay concentrations of 100, 30, 10, 3, 1, 0.3 and 0.1×10^−6M. Blood was incubated at 37° C. with 5% CO2 for 1 h. LPS was diluted in cell culture media to a concentration of […]; 10 μl was added to the whole blood to give a final concentration of 10 ng/ml. Plates were incubated at 37° C. for 18 h. Plates were centrifuged at 3,000 RPM for 5 minutes at 4° C. and supernatant removed and frozen at −80° C. until FACS analysis was carried out.
# (§7) Cytokine release was measured using a custom multiplex system (ELISA Genie) according to manufacturers instructions. Prepared samples were run on an Attune NxT flow cytometer (Thermo Fisher).
# (§8) Quantification of cytokine release inhibition: known concentration standards were run as part of the cytokine panel to allow quantification of each cytokine concentration in each sample. This was carried out using FCAP Array v3.0 software.
# (§9) Results: The dose response relationship on cytokine release following LPS induction of inflammatory response in whole blood was assessed for all compounds. IC50 values were determined for each compound for a panel of cytokines (GM-CSF, IFN-gamma, IL-1beta, IL-2, IL-4, IL-5, IL-6, IL-8, IL-9, IL-10, IL-12p40, IL-13, IL-17A, IL-17F, IL-18, IL-21, IL-22, IL-33, TGF-beta, TNF-alpha, TNF-beta).
# VEGFR-2 = biological target: T1, VEGFR-2 (Homo sapiens, UniProt P35968); assay: VEGF-165 induced phosphorylation of VEGF-Receptor on HUVEC; conditions: HUVEC preincubated 60 min, VEGF165 25 ng/mL 2 min; read-out: VEGFR-Phosphorylation inhibition IC50
# T1 construct: endogenous in cells; host or cells: primary HUVEC
# IFN-gamma = assay: Cytokine release after LPS induction on human whole blood: IFNγ
# Description: as §1, §2, §3, §4, §5, §6, §7, §8, §9
# IL-9 = assay: Cytokine release after LPS induction on human whole blood: IL-9
# Description: as §1, §2, §3, §4, §5, §6, §7, §8, §9
# IL-17A = assay: Cytokine release after LPS induction on human whole blood: IL-17A
# Description: as §1, §2, §3, §4, §5, §6, §7, §8, §9
# IL-5 = assay: Cytokine release after LPS induction on human whole blood: IL-5
# Description: as §1, §2, §3, §4, §5, §6, §7, §8, §9
# IL-6 = assay: Cytokine release after LPS induction on human whole blood: IL-6
# Description: as §1, §2, §3, §4, §5, §6, §7, §8, §9
# IL-13 = assay: Cytokine release after LPS induction on human whole blood: IL-13
# Description: as §1, §2, §3, §4, §5, §6, §7, §8, §9
# IL-2 = assay: Cytokine release after LPS induction on human whole blood: IL-2
# Description: as §1, §2, §3, §4, §5, §6, §7, §8, §9
# [1] = Homo sapiens, LPS 10 ng/ml, 18 h, read-out: Whole Blood: TNF β IC50
# [2] = human whole blood, inhibition of LPS induced inflammation, read-out: IC50 β
# [3] = Homo sapiens, LPS 10 ng/ml, 18 h, read-out: Whole Blood: IFNγ IC50
# [4] = human whole blood, inhibition of LPS induced inflammation, read-out: IC50 IFNγ
# [5] = Homo sapiens, LPS 10 ng/ml, 18 h, read-out: Whole Blood: IL-9 IC50
# [6] = human whole blood, inhibition of LPS induced inflammation, read-out: IC50 IL-9
# [7] = Homo sapiens, LPS 10 ng/ml, 18 h, read-out: Whole Blood: IL-17A IC50
# [8] = human whole blood, inhibition of LPS induced inflammation, read-out: IC50 IL-17A
# [9] = Homo sapiens, LPS 10 ng/ml, 18 h, read-out: Whole Blood: IL-5 IC50
# [10] = human whole blood, inhibition of LPS induced inflammation, read-out: IC50 IL-5
# [11] = Homo sapiens, LPS 10 ng/ml, 18 h, read-out: Whole Blood: IL-6 IC50
# [12] = human whole blood, inhibition of LPS induced inflammation, read-out: IC50 IL-6
# [13] = Homo sapiens, LPS 10 ng/ml, 18 h, read-out: Whole Blood: IL-13 IC50
# [14] = human whole blood, inhibition of LPS induced inflammation, read-out: IC50 IL-13
# [15] = Homo sapiens, LPS 10 ng/ml, 18 h, read-out: Whole Blood: IL-2 IC50
# [16] = human whole blood, inhibition of LPS induced inflammation, read-out: IC50 IL-2
# T1 sequence (P35968 20-1356): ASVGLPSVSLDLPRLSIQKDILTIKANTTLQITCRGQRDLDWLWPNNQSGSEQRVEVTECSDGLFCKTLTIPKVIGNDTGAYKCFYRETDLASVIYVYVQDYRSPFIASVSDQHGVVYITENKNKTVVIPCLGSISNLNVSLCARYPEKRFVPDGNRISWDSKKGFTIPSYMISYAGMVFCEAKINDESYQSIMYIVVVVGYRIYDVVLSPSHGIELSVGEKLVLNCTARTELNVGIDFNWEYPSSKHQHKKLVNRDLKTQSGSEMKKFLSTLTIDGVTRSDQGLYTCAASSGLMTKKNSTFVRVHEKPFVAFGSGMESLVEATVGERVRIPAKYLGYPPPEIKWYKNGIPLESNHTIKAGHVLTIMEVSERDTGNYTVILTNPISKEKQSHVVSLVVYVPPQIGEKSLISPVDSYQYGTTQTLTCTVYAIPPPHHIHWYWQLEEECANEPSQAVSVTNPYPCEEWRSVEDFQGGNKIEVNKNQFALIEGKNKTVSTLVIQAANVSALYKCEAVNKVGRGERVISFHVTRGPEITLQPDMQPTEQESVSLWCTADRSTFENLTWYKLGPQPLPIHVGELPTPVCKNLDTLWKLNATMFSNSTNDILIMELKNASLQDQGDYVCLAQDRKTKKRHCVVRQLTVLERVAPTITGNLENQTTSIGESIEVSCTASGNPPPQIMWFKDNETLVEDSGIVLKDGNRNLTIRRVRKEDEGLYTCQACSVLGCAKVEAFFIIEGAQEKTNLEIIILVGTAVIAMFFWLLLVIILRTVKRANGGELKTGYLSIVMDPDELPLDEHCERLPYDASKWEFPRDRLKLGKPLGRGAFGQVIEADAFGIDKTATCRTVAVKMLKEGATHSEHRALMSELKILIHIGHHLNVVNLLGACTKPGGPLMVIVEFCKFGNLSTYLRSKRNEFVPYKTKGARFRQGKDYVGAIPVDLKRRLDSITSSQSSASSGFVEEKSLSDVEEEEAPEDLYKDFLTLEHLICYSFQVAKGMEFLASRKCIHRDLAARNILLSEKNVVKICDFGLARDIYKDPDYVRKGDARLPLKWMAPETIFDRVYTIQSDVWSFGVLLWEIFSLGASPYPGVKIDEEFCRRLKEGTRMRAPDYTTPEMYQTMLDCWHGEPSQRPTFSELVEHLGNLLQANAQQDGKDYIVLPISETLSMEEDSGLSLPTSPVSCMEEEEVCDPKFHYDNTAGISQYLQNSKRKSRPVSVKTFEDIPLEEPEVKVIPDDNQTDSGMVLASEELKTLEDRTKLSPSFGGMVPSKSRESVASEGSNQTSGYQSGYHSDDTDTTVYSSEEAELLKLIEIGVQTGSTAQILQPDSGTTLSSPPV
Compound,IC50 (TNF-beta; [1]) [µM],IC50 (TNF-beta; [2]) [µM],IC50 (VEGFR-2) [µM],IC50 (IFN-gamma; [3]) [µM],IC50 (IFN-gamma; [4]) [µM],IC50 (IL-9; [5]) [µM],IC50 (IL-9; [6]) [µM],IC50 (IL-17A; [7]) [µM],IC50 (IL-17A; [8]) [µM],IC50 (IL-5; [9]) [µM],IC50 (IL-5; [10]) [µM],IC50 (IL-6; [11]) [µM],IC50 (IL-6; [12]) [µM],IC50 (IL-13; [13]) [µM],IC50 (IL-13; [14]) [µM],IC50 (IL-2; [15]) [µM],IC50 (IL-2; [16]) [µM]
"O=C(O)c1cc(O)cc(CSCc2cc(O)cc(C(=O)O)c2O)c1O [IVc-058a, 3-((2,5-Dihydroxy-3-carboxyphenyl)methylthiomethyl)-2,5-dihydroxybenzoic acid]",59.3,59.3,0.53,10.6,10.6,31.1,31.1,0.1,0.1,> 100,100,0.21,0.21,55.9,55.9,3.82,3.82
"O=C(O)c1cc(O)cc(CS(=O)(=O)Cc2cc(O)cc(C(=O)O)c2O)c1O [IVc-059a, 3-((2,5-Dihydroxy-3-carboxyphenyl)methylsulfonylmethyl)-2,5-dihydroxybenzoic acid]",0.33,0.33,4.8,4.34,4.34,0.4,0.4,0.16,0.16,> 100,100,0.11,0.11,> 100,100,21.2,21.2
"O=C(O)c1cc(O)c(C(=O)Nc2ccccc2C(=O)O)cc1O [Ia-001a, 4-(2-carboxyphenylaminocarbonyl)-2,5-dihydroxybenzoic acid]",13.2,13.2,2.25,30.5,30.5,5.63,5.63,0.1,0.1,> 100,100,1.24,1.24,26.4,26.4,94.3,94.3
"O=C(O)c1cc(O)c(C(=O)Nc2ccccc2-c2nnn[nH]2)cc1O [Ia-001a-Tz, 4-(2-(1H-tetrazol-5-yl)phenyl-aminocarbonyl)-2,5-dihydroxybenzoic acid]",53,53,0.23,> 100,100,8.63,8.63,0.11,0.11,> 100,100,0.75,0.75,32.1,32.1,7.99,7.99
"O=C(O)c1cc(O)c(C(=O)Nc2ccccc2S(=O)(=O)O)cc1O [Ia-001c, 2,5-dihydroxy-4-(2-sulfophenylaminocarbonyl)benzoic acid]",29.7,29.7,3.31,0.44,0.44,46.9,46.9,0.09,0.09,> 100,100,0.95,0.95,86.1,86.1,12.8,12.8
"O=C(O)c1cc(O)c(C(=O)Nc2ccc(-c3nnn[nH]3)cc2)cc1O [Ia-003a-Tz, 4-(4-(1H-tetrazol-5-yl)phenyl-aminocarbonyl)-2,5-dihydroxybenzoic acid]",55,55,6.4,2.95,2.95,3.62,3.62,0.07,0.07,> 100,100,1.41,1.41,89.6,89.6,43,43
"O=C(O)c1cc(NC(=O)c2cc(O)c(C(=O)O)cc2O)cc(C(=O)O)c1 [Ia-015a, 5-(4-carboxy-2,5-dihydroxybenzamido)isophthalic acid]",0.3,0.3,0.15,> 100,100,1.47,1.47,0.05,0.05,> 100,100,0.77,0.77,0.15,0.15,7.08,7.08
"O=C(O)c1cc(NC(=O)c2cc(O)c(C(=O)O)cc2O)cc(NC(=O)c2cc(O)c(C(=O)O)cc2O)c1 [Ib-010a, 3,5-bis(2,5-dihydroxy-4-carboxybenzoylamino)benzoic acid]",49.3,49.3,1.6,2.22,2.22,11.6,11.6,0.42,0.42,> 100,100,1.02,1.02,> 100,100,2.74,2.74
